# Patent US20200024285A1, “NOVEL CHROMONE OXIME DERIVATIVE AND ITS USE AS ALLOSTERIC MODULATOR OF METABOTROPIC GLUTAMATE RECEPTORS” (Prexton Therapeutics SA, priority 2014, published 2020)
# Where two headings read alike, the source gives them in different places.
# How the values were obtained:
# human mGluR4 = human mGluR4 (Homo sapiens, UniProt Q14833); assay: calcium assay for agonistic and/or positive allosteric modulator activity on human mGluR4; assay type: cell-based
# Description: The compound of formula (I) according to the invention (i.e., PXT002331) was tested for its agonistic and/or positive allosteric modulator activity on human mGluR4 using the calcium assay described in Example 171 of WO 2011/051478.
# [1] = in vivo pharmacokinetics in male Sprague-Dawley rats, plasma and brain; details: rat; for Kp at 1.5 h: brain, T = 1.5 h, read-out: Brain/Plasma ratio (T = 1.5 h); for Kp at 1.5 h / AUC(0-inf): po
# Description: PXT002331 and PXT001858 were administered per os (p.o.) at 10 mg/kg to male Sprague-Dawley rats. Volume of administration was 10 ml/kg. In parallel, PXT002331 was also administered intravenously (i.v.) at 1 mg/kg, with a volume of administration of 2 ml/kg. Blood samples (200 μl) were collected at time ranging from 15 minutes to 24 hours for the p.o. administration and from 5 minutes to 24 hours for the i.v. administration in ice-cold tubes containing 0.2% K2EDTA. Tubes were centrifuged at 10,000 rpm for 5 minutes at 4° C. The plasma (supernatant) was separated in another tube and stored at −80° C. until analysis. Two groups of 3 animals were used for each route of administration: in one group, blood samples were collected to determine the kinetics of plasma exposure over a 24-hour period, and in the second group, blood and brain were collected at one terminal time point (0.5, 1.0, 1.5, 2.0, 4.0 hours) to determine the kinetics of brain exposure and brain/plasma ratio.
# The respective parent compound (free base) was analysed in plasma samples and in brain homogenate using a LC-MS/MS method. Concentrations are expressed in ng/ml of plasma or in ng/g of brain tissue.
# (§1) Despite their similar oral absorption, PXT002331 has a higher brain/plasma ratio (6.5 versus 2.0 at T=1.5 h; see FIG. 4) leading to a 3-fold improvement in the brain AUC when compared to PXT001858. A posteriori, one potential hypothesis might rely on the difference of phase II conjugation in the intestine and liver during oral absorption. […] Nonetheless, this difference observed in vitro cannot by itself explain the unexpected advantageous PK results obtained with PXT002331. The results obtained in these experiments are furthermore summarized in Tables 1 to 3 below and in FIGS. 1 to 4.
# plasma protein binding = assay type: in vitro ADME; details: read-out: plasma protein binding, free fraction
# solubility in water = assay type: physicochemical; details: as hydrochloride salt
# [2] = phase I metabolic stability, CL (h); assay type: in vitro ADME; details: human
# Description: (§2) The in vitro ADME profile of PXT002331 was also very similar with reference to phase I metabolic stability: CL (h/r): 55/101 μl/min/mg protein and intestinal absorption: CaCo-2 (A-B, pgp): 4.11.0.10-6 cm/s, no efflux.
# CaCo-2 = assay: intestinal absorption CaCo-2 (A-B, pgp); assay type: in vitro ADME
# Description: as §2
# [3] = phase I metabolic stability, CL (r); assay type: in vitro ADME; details: rat
# Description: as §2
# [4] = tested on: UGT (UDP-Glucuronosyl transferase); assay: in vitro glucuronidation in rat liver microsomes; assay type: in vitro ADME; details: in vitro in the presence of UGT
# Description: as §1
# [5] = tested on: MPTP macaque model of Parkinson's disease; assay: MPTP macaque model of Parkinson's disease; assay type: in vivo, Macaca fascicularis
# Description: FIGS. 5A-F: Evaluation of the anti-parkinsonian efficacy of PXT002331 in the 1-methyl-4-phenyl-1,2,3,6-tetrahydropyridine (MPTP) macaque model of Parkinson's disease (see Example 3). (A) PXT002331 as a stand-alone treatment; oral administration twice a day during 4 days, assessment of parkinsonian scores at day 4; data are mean+s.e.m. over 2 hours observation (n=7 per group; 1 of the 8 monkeys initially used was excluded); “Veh”=vehicle; “LD opt”=L-dopa optimal dose”; *=P<0.05 vs Veh; ***=P<0.001 vs Veh; statistical analysis: Friedman followed by Dunn's. (B) Combined treatment using PXT002331 (25 mg/kg)+low dose of L-dopa (4-9 mg/kg)−parkinsonism time course; oral administration twice a day during 4 days, assessment at day #4; L-dopa optimal dose (“LDopt”): >20 mg/kg; L-dopa suboptimal dose (“LDso”): 4-9 mg/kg; combined administration of L-dopa (suboptimal dose) and PXT002331: twice a day/4 days. […] (D) Combined treatment using PXT002331+low dose of L-dopa−dose-response evaluation for different doses of PXT002331; assessment of parkinsonian scores at day 4; “Veh”=vehicle; “low LD”=low dose of L-dopa; “LD opt”=optimal dose of L-dopa; *=P<0.05 vs low LD; statistical analysis: non-parametric one-way repeated, measures ANOVA (Friedman's test), followed by Dunn's multiple comparison; N=7. (E) Computerized locomotor activity in early-stage PD monkey model for PXT002331 in combination with L-dopa (low dose or optimal dose) upon oral administration; *=P<0.05 vs vehicle; **=P<0.01 vs vehicle; ***=P<0.001 vs vehicle; statistical analysis: Friedman followed by Dunnett's; N=5 (6 monkeys/1 excluded). (F) Combined treatment using PXT002331+optimal dose of L-dopa−disability score and dyskinesia score. The anti-parkinsonian efficacy of the compound of formula (I) according to the present invention (i.e., PXT002331) was evaluated in the 1-methyl-4-phenyl-1,2,3,6-tetrahydropyridine (MPTP) macaque model of Parkinson's disease (using macaques of the species Macaca fascicularis), which reproduces most of the clinical and pathological hallmarks of Parkinson's disease and is considered a “gold standard” (see Porras G et al., Cold Spring Harb Perspect Med., 2(3):a009308, 2012 and references cited therein for a general description of the MPTP model). […] In this experiment, PXT002331 was orally administered twice a day during a period of 4 days, and the parkinsonian score was assessed at day 4 over 2 hours of observation (data are mean values+standard error of the mean (s.e.m.); n=7 monkeys per group). The anti-parkinsonian efficacy of PXT002331 (25 mg/kg) was further evaluated in combination with low (suboptimal) doses of L-dopa (levodopa; 4-9 mg/kg) (see FIGS. 5B and 5C). Doses were orally administered twice a day during 4 days, and assessment of parkinsonian scores took place at day 4 (between 1 and 2 h after L-dopa administration, i.e., between 2 and 3 h after PXT002331 administration). […] The results of a dose-response evaluation of the combination of PXT002331 (at doses from 2 mg/kg to 100 mg/kg) with L-dopa (low dose) are shown in FIG. 5D (the assessment of parkinsonian scores took place at day 4). […] In this experiment, each monkey was equipped with a detector of movements and signals were collected with 24 light beams and a video track recorder in order to descriminate all types of movements. The locomotor activity was measured during 1 hour.
# [6] = male, Sprague-Dawley, 10 mg/kg p.o.
# [7] = male, Sprague-Dawley, plasma, 10 mg/kg p.o.
# human mGluR4, sequence (Q14833 33-912): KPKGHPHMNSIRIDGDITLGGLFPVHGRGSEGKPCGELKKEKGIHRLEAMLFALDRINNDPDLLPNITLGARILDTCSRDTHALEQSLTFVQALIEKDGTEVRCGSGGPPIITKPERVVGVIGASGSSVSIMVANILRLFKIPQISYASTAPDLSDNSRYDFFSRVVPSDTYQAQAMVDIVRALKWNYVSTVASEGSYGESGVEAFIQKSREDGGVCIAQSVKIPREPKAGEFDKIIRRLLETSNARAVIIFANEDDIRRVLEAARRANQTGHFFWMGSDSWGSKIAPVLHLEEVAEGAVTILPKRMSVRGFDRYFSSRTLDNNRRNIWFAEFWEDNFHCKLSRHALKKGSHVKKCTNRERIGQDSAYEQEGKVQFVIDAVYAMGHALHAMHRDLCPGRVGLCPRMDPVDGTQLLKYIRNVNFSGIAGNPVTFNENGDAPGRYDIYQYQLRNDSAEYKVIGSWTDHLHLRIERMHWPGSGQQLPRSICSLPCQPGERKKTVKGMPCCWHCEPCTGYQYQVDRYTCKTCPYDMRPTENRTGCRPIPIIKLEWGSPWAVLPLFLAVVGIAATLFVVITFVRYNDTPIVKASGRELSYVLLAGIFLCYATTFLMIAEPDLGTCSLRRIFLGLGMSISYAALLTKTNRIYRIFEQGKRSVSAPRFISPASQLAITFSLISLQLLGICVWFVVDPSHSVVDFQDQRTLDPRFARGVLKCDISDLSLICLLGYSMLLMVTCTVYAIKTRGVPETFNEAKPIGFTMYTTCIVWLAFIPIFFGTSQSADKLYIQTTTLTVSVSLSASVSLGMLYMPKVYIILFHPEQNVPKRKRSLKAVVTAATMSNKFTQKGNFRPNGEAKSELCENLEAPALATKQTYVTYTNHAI
smiles,measurement,setting,value
"O/N=c1\cc(-c2cc3sccc3cn2)oc2ccc(OCCN3CCOCC3)cc12 [PXT001858, reference compound]",EC50,human mGluR4; read-out: pEC50 on human mGluR4 (converted),36.3 nM
same,Kp at 1.5 h,[1]; [6],2
same,AUC(0-inf),[1]; [7],394 ng·h/mL
same,Brain AUC inf,[1]; 10 mg/kg p.o.,838 ng·h/g
same,Cmax (Brain),[1]; 10 mg/kg p.o.,521 ng/G tissue
same,fraction unbound,plasma protein binding,< 0.01
same,solubility,solubility in water,> 10000 µg/mL
"ON=c1cc(-c2cc3sccc3cn2)oc2ccc(CCCN3CCOCC3)cc12 [PXT002331, 6-(3-morpholin-4-yl-propyl)-2-(thieno[3,2-c]pyridin-6-yl)-4H-chromen-4-one oxime]",EC50,human mGluR4; read-out: EC50 corresponding to pEC50 (converted),~76 nM
same,microsomal CLint,[2],55 µL/min/mg
same,Kp at 1.5 h,[1]; [6],6.5
same,bioavailability,"[1]; male, Sprague-Dawley, plasma, oral, 10 mg/kg p.o. vs 1 mg/kg i.v.",39%
same,AUC(0-inf),[1]; [7],432 ng·h/mL
same,Brain AUC inf,[1]; 10 mg/kg p.o.,2713 ng·h/g
same,Cmax (Brain),[1]; 10 mg/kg p.o.,818 ng/G tissue
same,improvement in brain AUC compared to PXT001858,[1]; 10 mg/kg p.o.,3 fold
same,plasma Cmax relative to PXT001858,[1]; 10 mg/kg p.o.,0.7 fold
same,plasma exposure AUC relative to PXT001858,[1]; 10 mg/kg p.o.,1.1 fold
same,fraction unbound,plasma protein binding,< 0.01
same,CaCo-2 efflux (pgp),CaCo-2,no efflux
same,solubility,solubility in water,> 10000 µg/mL
same,microsomal CLint,[3],101 µL/min/mg
same,level of glucuronidation compared to PXT001858,[4],much lower level of glucuronidation
same,"parkinsonian score, combined with suboptimal dose of L-dopa vs L-dopa (suboptimal dose) alone","[5]; 25 mg/kg p.o. + L-dopa 4-9 mg/kg, twice a day 4 days, day 4",considerable improvement in parkinsonian score
same,locomotor activity in combination with low or optimal dose of L-dopa,"[5]; 25 mg/kg p.o., early stage PD monkey model, measured during 1 hour",significant improvement in locomotor activity
same,induction of dyskinesia in combination with L-dopa (optimal dose),[5]; 25 to 100 mg/kg,without inducing dyskinesia
same,disability score in combination with L-dopa (optimal dose),"[5]; increasing doses, 25 to 100 mg/kg",improvement in the disability score
same,"anti-parkinsonian activity (parkinsonian score), stand-alone treatment","[5]; p.o. twice a day for 4 days, score at day 4 over 2 h",potent anti-parkinsonian activity
